Assays:
Cathepsin B [1] = molecular target: T1, Cathepsin B (Bos taurus, UniProt P07688); assay: Cathepsin B inhibition, Z-Arg-Arg-AFC (Table PKC1); assay type: biochemical; conditions: pH 6.0 phosphate buffer, substrate Z-Arg-Arg-AFC; read-out: Ki CB (Cathepsin B)
Method: (§1) Various concentrations of inhibitors in dimethylsulfoxide (DMSO) were added to the assay mixture, which contained buffer and substrate. The reaction was started by the addition of the enzyme and the hydrolysis rates were followed spectrophotometrically or fluorimetrically. 88 mM KH2 PO4, 12 mM Na2 HPO4, 1.33 mM EDTA, 2.7 mM cysteine, pH 6.0 was used as a buffer for cathepsin B; and 20 mM Hepes, 10 mM CaCl2, 10 mM β-mercaptoethanol, pH 7.2 buffer was utilized for calpain I and calpain II.
(§2) All peptide thioester hydrolysis rates were measured with assay mixtures containing 4,4'-dithiodipyridine [e324=19800 M-1 cm-1; Grasetti & Murray, Arch. Biochem. Biophys. 119, pp 41-49 (1967)]. Papain was assayed with Bz-Arg-AMC or Bz-Arg-NA [Kanaoka et al., Chem. Pharm. Bull. 25, 3126-3128 (1977)], and the AMC (7-amino-4-methylcoumarin) release was followed fluorimetrically (excitation at 380 nm, and emission at 460 nm). Cathepsin B was assayed with Z-Arg-Arg-AFC [Barrett and Kirschke, Methods Enzymol. 80, 535-561 (1981)], and the AFC (7-amino-4-trifluoromethylcoumarin) release was followed fluorimetrically (excitation at 400 nm, and emission at 505 nm). Calpain I from human erythrocytes and calpain II from rabbit were assayed using Suc-Leu-Tyr-AMC [Sasaki et al., J. Biol. Chem. 259, 12489-12494 (1984), hereby incorporated by reference], and the AMC (7-amino-4-methylcoumarin) release was followed fluorimetrically (excitation at 380 nm, and emission at 460 nm). Enzymatic hydrolysis rates were measured at various substrate and inhibitor concentrations, and Ki values were determined by Dixon plot.

[2] = molecular target: T2, Calpain I from human erythrocytes (Homo sapiens, UniProt P07384); assay: Calpain I inhibition, Suc-Leu-Tyr-AMC (Table PKC1); assay type: biochemical; conditions: 20 mM Hepes, 10 mM CaCl2, 10 mM β-mercaptoethanol, pH 7.2; read-out: Ki CI (Calpain I)
T2 construct: Calpain I from human erythrocytes and calpain II from rabbit were assayed using Suc-Leu-Tyr-AMC; from tissue; host or cells: human erythrocytes
T2 sequence (P07384 1-714): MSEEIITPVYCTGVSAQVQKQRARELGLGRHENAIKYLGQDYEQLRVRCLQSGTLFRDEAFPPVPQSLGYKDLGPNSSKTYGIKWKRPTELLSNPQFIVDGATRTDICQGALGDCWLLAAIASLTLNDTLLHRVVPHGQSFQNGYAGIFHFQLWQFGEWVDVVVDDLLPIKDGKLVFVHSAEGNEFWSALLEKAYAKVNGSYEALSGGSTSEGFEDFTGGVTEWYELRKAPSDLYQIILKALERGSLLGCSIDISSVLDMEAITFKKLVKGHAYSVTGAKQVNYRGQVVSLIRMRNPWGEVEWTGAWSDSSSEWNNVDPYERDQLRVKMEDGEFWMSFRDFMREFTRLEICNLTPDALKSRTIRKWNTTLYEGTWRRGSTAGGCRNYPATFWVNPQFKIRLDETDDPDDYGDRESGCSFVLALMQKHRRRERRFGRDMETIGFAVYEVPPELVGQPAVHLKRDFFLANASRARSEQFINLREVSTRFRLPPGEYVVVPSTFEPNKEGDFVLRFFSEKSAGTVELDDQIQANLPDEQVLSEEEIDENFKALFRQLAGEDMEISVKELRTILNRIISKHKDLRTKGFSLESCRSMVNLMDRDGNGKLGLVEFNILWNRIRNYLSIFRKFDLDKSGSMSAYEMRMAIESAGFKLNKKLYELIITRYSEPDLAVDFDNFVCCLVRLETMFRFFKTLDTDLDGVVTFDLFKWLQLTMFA
T2 sequence (P04632 1-268 partner): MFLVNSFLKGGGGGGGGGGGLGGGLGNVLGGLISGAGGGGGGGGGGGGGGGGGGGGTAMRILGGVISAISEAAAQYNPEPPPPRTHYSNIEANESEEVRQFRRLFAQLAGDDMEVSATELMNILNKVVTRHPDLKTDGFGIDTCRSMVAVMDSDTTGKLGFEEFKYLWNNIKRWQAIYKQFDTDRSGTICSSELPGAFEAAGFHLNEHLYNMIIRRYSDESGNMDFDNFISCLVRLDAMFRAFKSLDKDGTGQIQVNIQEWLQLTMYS
Method: as §1, with “Our discovery of Peptide Keto-Compounds effective as Calpain Inhibitors was made through assay of the Peptide Keto-Compounds as reversible inhibitors. Various” for “Various”
as §2

N18-RE-105 cells = assay: Glutamate-induced cell death, MTT conversion (Example 5); assay type: cell-based; conditions: 5 mM glutamate, 19 hours; for blue formazan product relative to control without glutamate: inhibitor 3 μg/ml
Method: Stock cultures of N18-RE-105 cells were maintained in Dulbecco's modified Eagle's medium (DMEM) containing 10% fetal bovine serum (FBS) and supplemented with hypoxanthine, aminopterin and thymidine (HAT). Subconfluent cultures were split and plated into 96-well plates. Twenty-four hours after plating the cells were exposed to fresh media containing glutamate and various concentrations of Calpain inhibitors. Control cells were not treated with glutamate. Conversion of MTT was measured 19 hours later as described. Nineteen hours after the onset of exposure, cell viability was quantitated by measuring the extent to which the cells convert 3(4,5-dimethylthiazol-2-yl)-2-5-diphenyltetrazolium bromide (MTT) to a blue formazan product, which occurs in the mitochondria of living but not dead cells (Pauwels et al., 1988). A higher absorbance is indicative of greater cell viability.

calpain II from rabbit = assay: Calpain II inhibition, Suc-Leu-Tyr-AMC (Table PKC1); assay type: biochemical; conditions: 20 mM Hepes, 10 mM CaCl2, 10 mM β-mercaptoethanol, pH 7.2; read-out: Ki CII (Calpain II)
Method: as §1, with “Our discovery of Peptide Keto-Compounds effective as Calpain Inhibitors was made through assay of the Peptide Keto-Compounds as reversible inhibitors. Various” for “Various”
as §2

Chym = Chym (Bos taurus, UniProt P00766); assay: Chym KI (Table 1B(ii)); assay type: biochemical
From the text: (§3) We tested the ability of an additional group of Peptide Keto-Compounds to inhibit several proteases in order to evaluate their specificity for Calpain.

Cathepsin B [3] = molecular target: T1, Cathepsin B; assay: Cathepsin B KI (Table 1B(ii)); assay type: biochemical; conditions: read-out: KI CathB
From the text: as §3

Stability in plasma = assay type: in vitro ADME; conditions: unit assumed
From the text: We determined the haft-life of several Peptide Keto-Compounds in both plasma and liver homogenates.

Calpain II = Calpain II KI (Table 1B(ii)); assay type: biochemical
From the text: as §3

SMILES	Ki (Cathepsin B [1])	Ki [2]	blue formazan product relative to control without glutamate (N18-RE-105 cells)	Ki (calpain II from rabbit)	Ki (Chym)	Ki (Cathepsin B [3])	t1/2 plasma (Stability in plasma)	Ki (Calpain II)	protection against glutamate toxicity (N18-RE-105 cells; leupeptin 5 μg/ml)
CCC(NC(=O)[C@@H]1CCCN1C(=O)[C@H](C)NC(=O)[C@H](C)NC(=O)CCC(=O)OC)C(=O)C(=O)OC (mixture of isomers) [MeO-Suc-Ala-Ala-Pro-Abu-COOMe, MeO-Suc-Ala-Ala-Pro-DL-Abu-CO2 Me]	6 µM	100000 nM							
CCOC(=O)C(=O)C(CC)NC(=O)[C@H](C)NC(=O)[C@H](C)NC(=O)OCc1ccccc1 (mixture of isomers) [Z-Ala-Ala-DL-Abu-COOEt, Z-Ala-Ala-DL-Abu-CO2 Et]	10 µM	50000 nM	≥ 100%	200000 nM					
CCOC(=O)C(=O)[C@H](CC)NC(=O)[C@H](CC(C)C)NC(=O)OCc1ccccc1 (racemic) [Z-Leu-Abu-COOEt, Z-Leu-DL-Abu-COOEt]		40 nM		400 nM	> 100 µM	30 µM	2.8 min	400 nM	
CCCC(NC(=O)[C@H](CC(C)C)NC(=O)OCc1ccccc1)C(=O)C(=O)OCC (mixture of isomers) [Z-Leu-Nva-COOEt, Z-Leu-DL-Nva-COOEt]	30 µM			1200 nM	160 µM	25 µM	2.8 min	1200 nM	
N=C(N)SCCCOc1oc(=O)c2ccccc2c1Cl [CiTprOIC, 4-chloro-3-(3-isothiureidopropoxy)isocoumarin]			≥ 100%						
CC(=O)N[C@@H](CC(C)C)C(=O)N[C@@H](CC(C)C)C(=O)N[C@H](C=O)CCCNC(=N)N [Leupeptin, Ac-Leu-Leu-Arg-H, reference compound]									protect N18-RE-105 cells against glutamate toxicity
N=C(N)SCCCOc1oc(=O)c2cc(N)ccc2c1Cl [NH2 -CiTPrOIC (ACITIC), 7-amino-4-chloro-3-(3-isothiureidopropoxy)isocoumarin]			≥ 100%						
CCCCC(NC(=O)C(CC(C)C)NC(=O)OCc1ccccc1)C(=O)C(=O)OCC (stereo not drawn) [Z-Leu-Nle-COOEt, Z-Leu-NLeu-CO2 Et]		120 nM		180 nM		20 µM	3.7 min	180 nM	
CCOC(=O)C(=O)C(Cc1ccccc1)NC(=O)C(CC(C)C)NC(=O)OCc1ccccc1 (stereo not drawn) [Z-Leu-Phe-COOEt]		230 nM		400 nM	0.025 µM	340 µM	7.8 min	400 nM	

Reference: US5444042A, “Method of treatment of neurodegeneration with calpain inhibitors” (Cortex Pharmaceuticals, priority 1994, dated 1995)
